The values that follow are results of earlier work, collected in patent US20090047357A1, “METHOD OF PRODUCING DRUG-CONTAINING WAX MATRIX PARTICLES, EXTRUDER TO BE USED IN THE METHOD AND SUSTAINED-RELEASE PREPARATION CONTAINING CILOSTAZOL” (OTSUKA PHARMACEUTICAL CO., LTD., priority 2005, published 2009).

`Cn1c(=O)c2[nH]cnc2n(C)c1=O` [theophylline]: the water solubility result is given as “about 0.6 w/v %”.
